Where two headings read alike, the source gives them in different places.
Key:
[1] = Octanol–water partition coefficient, shake-flask method (OECD Test No. 107); assay type: physicochemical
Description: The octanol–water partition coefficients (KOW) of the synthesized products were estimated by the shake-flask method according to the OECD Test No. 107 guidelines (Partition Coefficient n-Octanol/Water: Shake-Flask Method). Measurements were performed using mutually saturated distilled water and 1-octanol in a glass vial containing a magnetic stir bar. First, the synthesized products were dissolved in distilled water (or 1-octanol) at a chosen concentration (0.01 mol per 1 L of octanol or water), and then proper amounts of the second solvent (octanol or water) were added. Subsequently, two duplicate runs were carried out with different solvent ratios: 4 mL of 1-octanol and 2 mL of water (2:1), 4 mL of 1-octanol and 4 mL of water (1:1), and 4 mL of 1-octanol and 8 mL of water ([…]). All vials were shaken at a constant temperature of 25 °C. After 24 h, all samples were centrifuged and the aqueous and octanolic phases were collected with a syringe. The concentrations of compounds in water were determined spectrophotometrically using a Rayleigh UV-1601 spectrophotometer (Beijing Beifen-Ruili Analytical, China) based on calibration curves made previously (at λmax = 262 nm) vs concentration for each substance. Two repetitions of each measurement were performed in a specific solvent ratio (1:1, 1:2, and 2:1). Finally, the log KOW was calculated as the average of six results collected for each compound.
The outermost layer of the skin (stratum corneum) contains around […] water, a relatively low amount compared to the rest of the human body. Given the hydrophobic nature of 1-octanol, it can be used as a simplified model for the stratum corneum.[50] The octanol–water partition coefficient (KOW) value represents the proportion between the concentrations of a substance in both liquid phases of a system composed of water and 1-octanol. […] The log KOW values are given in Figure 6 (exact values are provided in Table S4, Supporting Information).

[2] = Solubility in PBS; conditions: for Solubility in PBS, Class: Pharmacopeia solubility class, PBS pH 7.4, 25 °C
Description: The solubility in PBS solution was determined by placing 1 g (±0.0001) of tested compound in a round-bottom flask and adding specific parts of the PBS solution in portions until full dissolution. The samples were vigorously stirred for at least 5 min before the addition of the next portion of PBS, and the systems were thermostated at 25 °C. Three repetitions of the measurement were performed for each of the compounds.
Most studies on the solubility of novel APIs are carried out with pure water, aqueous PBS solutions were much more preferred due to their higher similarity to intra- and intercellular media in epidermis, while envisaging their use in transdermal delivery and skin care applications.[60] […] The collected data are presented in Figure 8 (as well as in Table S6 in the Supporting Information).

[3] = Contact angle of aqueous solutions, sessile drop method on paraffin; assay type: physicochemical; conditions: aqueous solution, 25 °C
Description: The contact angle (CA) measurements were carried out using a DSA100S analyzer (Krüss, Germany, accuracy ±0.1°), at 25 °C. The determination of the contact angle was based on the sessile drop method, i.e., drops of the analyzed solution were deposited on a solid surface (paraffin). The images of the drops were taken with a CCD camera, digitized, and evaluated using Young–Laplace fitting. The CA was determined as the slope of the tangent line at the contact point between the 3 phases (solution, paraffin surface, and air).
In the case of seborrheic skin, which occurs among many people affected by acne, the epidermis is covered by a hydrophobic lipid layer, which impedes the penetration of active substances, especially those that are well soluble in water. In addition, ensuring proper drug absorption through the skin can also reduce the risk of side effects and increase the effectiveness of therapy.[72] The addition of surfactants, which improve the wettability of hydrophobic surfaces, can be a solution to this problem.[73],[74] […] Wettability analyses of aqueous solutions of the new APIs were carried out on paraffin, whose hydrophobicity is similar to that of the human skin.[75] Experiments were performed at concentrations corresponding to common NA and SAL contents in commercial formulations (0.25–1.00%).[67],[76],[77] Due to low solubilities of 5–7, tests for these salts were performed at concentrations of 0.25, 0.03, and 0.01%, respectively (please see Figure S43 in the Supporting Information).

[4] = system: Artemia franciscana; assay: Ecotoxicity toward aquatic life, Artoxkit M immobilization test; assay type: in vivo; conditions: for EC50: Artemia franciscana; for Class: acute toxicity rating scale by Fish and Wildlife Service
Description: To determine the EC50 parameter for compounds, tests were carried out on marine crustaceans—Artemia franciscana (A. franciscana). The methodology proposed in the Artoxkit M test (MicroBioTests Inc., Gent, Belgium) was developed according to the ASTM E1440-91 standard.
The hatching process was started first. For this purpose, 50 mg of cysts was transferred to the Petri dishes attached to the Artoxkit M set, which were then immersed in 10 mL of artificial seawater with a salinity of 35‰ (a medium for the development of the tested organisms, as well as a solvent for preparing solutions of the tested compounds) and placed at a temperature of 25 °C, with access to light (6000–10,000 lux) for 30 h. Then, 2 h before placing them on the Artoxkit M plates, 20 mg of spirulina was added to cultured artemias. In addition, 1 h before the analysis, the used seawater was oxygenated by passing a stream of air through the solution. To each of the four cells in a given row of a plate from the Artoxkit M kit, 1 mL of solution at the specified concentrations (or the appropriate medium in the case of a control) were introduced. In the first column of cells (a control sample and five selected concentrations), no less than 30 artemias were placed from previously prepared Petri dishes. Then, from the first cell in the first column, artemias were collected at the selected concentration and added to the next three cells in the selected row, 10 organisms per cell. After the organisms were introduced into the appropriate cells, the plates were covered with Parafilm and then closed with a plastic cap. The prepared kit was incubated at 25 °C and protected from light. Number of motionless organisms were counted after 24 and 48 h. Immobilization was then calculated (eq 1) in relation to the number of organisms at the start of the test: [drawing 1] 1
Next, the dependence between the effect and concentration of the tested compounds was plotted, and on this basis, an EC50 value was determined.

[5] = system: Cutibacterium acnes; assay: MIC and MBC determination, microdilution method; assay type: cell-based; conditions: for MIC / MBC: Cutibacterium acnes; for MIC: 48 h, read-out: MIC, C. acnes; for MBC: read-out: MBC, C. acnes
Description: (§1) The antimicrobial activities of the compounds were tested against clinical strains of an aerobic Gram-negative bacterium—Pseudomonas aeruginosa (P. aeruginosa), facultative anaerobic Gram-positive bacteria—Staphylococcus aureus (S. aureus) and Staphylococcus epidermidis (S. epidermidis), anaerobic Gram-positive bacterium—Cutibacterium acnes (C. acnes), and yeast-like fungus—Candida albicans (C. albicans).
(§2) Aerobic and facultative anaerobic bacteria cultures were grown in Brain Heart Infusion broth (BHI, bioMerieux, France) at 35 °C ± 1 °C for 18 h, C. acnes cultures were grown in thioglycolate broth with resazurin (TGB, bioMerieux, France) at 35 ± 1 °C for 48 h, and yeast cultures were grown in Sabouraud dextrose broth (SDB, Merck, Germany) at 35 ± 1 °C for 24 h. After incubation, each culture was diluted in a suitable liquid medium: P. aeruginosa, S. aureus, and S. epidermidis—Mueller–Hinton broth (MHB; Oxoid, UK); C. acnes—TGB; and C. albicans—SDB, to obtain a final suspension containing about 10^6 CFU/mL.
(§3) The microdilution method was employed to determine the compounds’ MIC (Minimal Inhibitory Concentration) and MBC/MFC (Minimal Bactericidal Concentration/Minimal Fungicidal Concentration) against the tested bacterial and fungal strains.
(§4) The compounds were serially diluted (2-fold) in the respective media (P. aeruginosa, S. aureus, and S. epidermidis—MHB, C. acnes—TGB, and C. albicans—SDB in 96-well plates), and the microbial suspensions were added. The compounds were tested in the final concentration range of 4 096 to 0.125 μg/mL, and the final microbial inoculum was approximately 5 ×10^5 CFU/mL. The tests were incubated at 35 °C ± 1 °C for 18 h (P. aeruginosa, S. aureus, and S. epidermidis) or 24 h (C. albicans) or 48 h (C. acnes). C. acnes was incubated in an anaerobic atmosphere using a GENbag anaer (bioMerieux, France). Media (without the strains) added to the different concentrations of tested compounds and media inoculated with microbial suspension were used as a negative control and growth control, respectively.
(§5) The MIC was defined as the lowest concentration at which visible growth was inhibited. MBC and MFC concentrations were determined as an extension of the MIC test. […] The plates were incubated at 35 ± 1 °C for 18–72 h. C. acnes was incubated in an anaerobic atmosphere. The MBC/MFC was defined as the lowest concentration at which no growth was observed. All tests were performed in duplicate.

[6] = system: Pseudomonas aeruginosa; assay: MIC and MBC determination, microdilution method; assay type: cell-based; conditions: for MIC: 18 h, read-out: MIC, P. aeruginosa; for MBC: read-out: MBC, P. aeruginosa
Description: as §1, §2, §3, §4, §5

[7] = system: Staphylococcus aureus; assay: MIC and MBC determination, microdilution method; assay type: cell-based; conditions: for MIC: 18 h, read-out: MIC, S. aureus; for MBC: read-out: MBC, S. aureus
Description: as §1, §2, §3, §4, §5

[8] = system: Staphylococcus epidermidis; assay: MIC and MBC determination, microdilution method;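 as to all read-outs here: column refers to Staphylococcus epidermidis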; assay type: cell-based; conditions: for MIC: 18 h, read-out: MIC, S. epidermidis; for MBC: read-out: MBC, S. epidermidis
Description: as §1, §2, §3, §4, §5

[9] = system: Candida albicans; assay: MIC and MFC determination, microdilution method; assay type: cell-based; conditions: for MIC: 24 h, read-out: MIC, C. albicans; for MFC: read-out: MFC, C. albicans
Description: as §1, §2, §3, §4, §5

[10] = set-up: method as in doi:10.1080/10826076.2015.1057642, PMID 22469554, PMID 31982561; conditions: frequently used topical acne agents; cited from earlier work
[11] = system: cyclooxygenase-2 (PDB ID: 1CX2); assay: Molecular docking (AutoDock4); conditions: from docking IC50 values
Description: Docking studies were performed using the AutoDock4 program in AutoDockTools 1.5.7.[28] The structures for ligands (reference substances and N-alkylnicotinamide cations) were optimized for energy minimization using the MMFF94 force field in Avogadro 1.2.0 with the steepest descent algorithm and subsequently converted to a PDBQT format using OpenBabelGUI. The three-dimensional structure of target cyclooxygenase-2 (Protein Data Bank ID: 1CX2) was retrieved from Protein Data Bank (http://www.pdb.org) with a resolution of 3.00 Å. The protein molecule 1CX2 was prepared using AutoDockTools version 1.5.7. The preparation process involved checking for missing atoms, repairing any missing atoms, adding polar hydrogens and Kollman charges, and distributing charges over all of the atoms on residues. All cocrystallized compounds present in the 1CX2 structure (including water molecules and the ligand) were removed prior to the calculations. […] The interaction between the ligand and receptor and hydrogen bond lengths were analyzed using AutoDockTools and PLIP (Protein Ligand Interaction Profiler) developed by Biotechnology Center TU Dresden (BIOTEC).

[12] = toxicity range of EC50, read-out: Range
[13] = volume of PBS (pH 7.4) to dissolve 1 g, 25 °C
[14] = shake-flask, 25 °C, 24 h, average of six results, read-out: Octanol-water partition coefficient (log Kow)
[15] = immobilization, motionless organisms counted after 24 and 48 h, 25 °C, read-out: EC50

Row | SMILES | Contact angle ([3]; concentration 0.25%) [°] | Contact angle ([3]; concentration 0.50%) [°] | Contact angle ([3]; concentration 1.00%) [°] | EC50 [4, 12] [µg/mL] | Class [4] | Solubility in PBS, Class [2] | Solubility in PBS, PBS [ml] [2, 13] [mL] | MIC [6] [µg/mL] | MIC [7] [µg/mL] | MBC [7] [µg/mL] | MIC [8] [µg/mL] | MBC [8] [µg/mL] | MIC [9] [µg/mL] | logP at 24 h [1, 14] | further results
1 | NC(=O)c1cccnc1 [NA, nicotinamide, reference compound] | 112.7 | 110.7 | 110.6 | > 1000 | Relatively Harmless (>1000) | – | – | – | – | – | – | – | – | – | logP at 24 h [1]: -0.66; Solubility in PBS, PBS [ml] ([2]; pH 7.4): < 1 mL
2 | NC(=O)c1cccnc1.O=C(O)c1ccccc1O [[NA][SAL], reference compound] | 110.5 | 108.3 | 99.9 | – | Practically Nontoxic (100-1000) | Sparingly Soluble (30-100) | 30 to 100 | 2050 | 2050 | 2050 | 2050 | 2050 | 2050 | – | Contact angle ([3]; concentration 1.00%, listed as cocrystal): 100 °; MBC, C. acnes ([5]; clinical strain, anaerobic, tested 4 096 to 0.125 μg/mL, b = out of range): did not show bactericidal activity; EC50 [4]: 565 µg/mL; EC50 ([4]; read-out: Range): 100 to 1000 µg/mL
3 | O=C(O)CCCCCCCC(=O)O [azelaic acid] | – | – | – | – | – | – | – | – | – | – | – | – | – | – | log KOW [10]: 1.42
4 | CC[n+]1cccc(C(N)=O)c1.O=C([O-])c1ccccc1O [compound 1] | 112.1 | 110.3 | 109.7 | > 1000 | Relatively Harmless (>1000) | Very Soluble (<1) | < 1 | – | 1020 | – | 4100 | – | – | -1.15 | –
5 | CCCC[n+]1cccc(C(N)=O)c1.O=C([O-])c1ccccc1O [compound 2] | 102.7 | 104.3 | 103.9 | > 1000 | Relatively Harmless (>1000) | Very Soluble (<1) | < 1 | – | 1020 | – | 2050 | – | – | -0.7 | –
6 | CCCCCCCCCCCC[n+]1cccc(C(N)=O)c1.O=C([O-])c1ccccc1O [compound 6] | – | – | – | 10 to 100 | Slightly Toxic (10-100) | Very Slightly Soluble (1000-10 000) | – | 256 | 8 | 8 | 256 | 256 | 256 | 0.6 | MIC [5]: 64 µg/mL; MBC [5]: 64 µg/mL; MBC [6]: 256 µg/mL; MFC [9]: 256 µg/mL; times more potent than NA itself [11]: 125 times; EC50 [4, 15]: 89.7 µg/mL
7 | CCCCCCCCCCCCCC[n+]1cccc(C(N)=O)c1.O=C([O-])c1ccccc1O [compound 7] | – | – | – | 100 to 1000 | Practically Nontoxic (100-1000) | Very Slightly Soluble (1000-10 000) | – | 64 | 0.5 | 0.5 | 4 | 4 | 16 | 1.34 | MIC [5]: 4 µg/mL; MBC [5]: 4 µg/mL; MBC [6]: 64 µg/mL; MFC [9]: 16 µg/mL; EC50 [4, 15]: 155 µg/mL
